The text below walks through data of PubChem BioAssay AID179 (DTP/NCI, 2004).

For orientation: EC50 means the concentration at which the effect is half-maximal. What is called IC50 is the concentration that inhibits the measured activity by half. Low readings indicate inhibition by little substance, high ones a need for much substance.

Structures are written as SMILES. The source made the active and inactive calls.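 Rule for the calls: active = compounds giving half or more protection of infected cells from virus-caused growth loss, again on retest; inactive = the rest.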 Where a SMILES comes first, the peptide text is derived from it. [ ]: non-standard residue; d: D form. The star is where a group is joined. ξ: configuration not given here. NMeF = CN[C@@H](Cc1ccccc1)C(=O)O; NMeN = CN[C@@H](CC(N)=O)C(=O)O; NMeV = CN[C@H](C(=O)O)C(C)C; ξNMeV = CNC(C(=O)O)C(C)C; Boc = CC(C)(C)OC(=O)*; ξNMeA = CNC(C)C(=O)O; ξV = CC(C)C(N)C(=O)O

The assay relates to CEM cells HIV-1 protection, formazan growth assay. Description: NCI AIDS Antiviral Assay. The note with it: for IC50: measured here: growth of uninfected CEM cells. The gist of the method:
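Human CEM cells, uninfected and HIV-1-infected, exposed to five drug concentrations; growth measured by soluble formazan assay and scored as percent protection from infection, with protecting compounds retested.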

For `COC(=O)C(=O)C(C(=O)C(=O)Nc1cc(C)ccc1C)c1nc2ccccc2[nH]c1=O` (configuration not stated), the EC50 was greater than 589 µM and the IC50 came out at 275 µM. As for `O=P1(O)c2ccccc2CSCc2ccccc21`, the EC50 was greater than 324 µM and the IC50 is greater than 324 µM. As for `O=C(Nc1ccc(Cl)cc1C(=O)O)c1ccc([N+](=O)[O-])cc1`, the outcome was inactive. For `O=C(O)CN(c1ccccc1)S(=O)(=O)c1ccccc1[N+](=O)[O-]`, the result was inactive.

Consider `COC(=O)C1C(=O)NC2(C)CC1c1ccccc1O2` (configuration not stated), for which the result was inactive. Take `CCOC(=O)C1C(=O)CC(O)(c2ccccc2)C(C(=O)OCC)C1c1ccc(OC)cc1` (configuration not stated): the EC50 is greater than 200 µM and the IC50 stood at 5.01 µM.

For `COc1cc(Cc2c(OC)c(OC)cc(C)c2C(=O)O)cc(OC)c1`, the EC50 is greater than 145 µM and the concentration for half-maximal inhibition (IC50) is greater than 145 µM. Take `CC(C)(C)[Si](C)(C)OC1C(n2ccc(=O)[nH]c2=O)OC(COC(c2ccccc2)(c2ccccc2)c2ccccc2)C1(CC#N)Sc1ccccc1` (configuration not stated): the EC50 was greater than 200 µM and the IC50 was greater than 200 µM. Take `Cc1cc(C)c(C(=O)/C=C/c2ccccc2)c(C)c1`: the EC50 is greater than 28.8 µM and the IC50 was greater than 28.8 µM. Regarding `[O-]c1c2cc(-[n+]3c(-c4ccccc4)cc(-c4ccccc4)cc3-c3ccccc3)cc1CO[C@@H](c1ccccc1)[C@H](c1ccccc1)OCCOCCO[C@@H](c1ccccc1)[C@H](c1ccccc1)OC2`, the EC50 is greater than 2 µM and the IC50 came out at 0.105 µM.

With `COCc1cc2c(cc1/C(=C/[N+](=O)[O-])CS(=O)(=O)c1ccccc1)OCO2`, the EC50 was greater than 200 µM and the half-inhibitory concentration (IC50) was 102 µM. The matching figures for `O=[N+]([O-])CC1CCCCC1O` (configuration not stated): greater than 200 µM and 115 µM.

With `O=C(NNC(=O)c1cc2ccccc2[nH]1)c1cc2ccccc2[nH]1`, the EC50 is greater than 200 µM and the IC50 is greater than 200 µM. With `C=CC(C)(C)[C@@]12CC3C(=O)N[C@@H](Cc4ccccc4)C(=O)N3[C@@H]1N(C(C)=O)c1ccccc12` (some centres not stated), the EC50 is greater than 81.3 µM and the IC50 was 70.8 µM. On to `CSC[C@H](NC(=O)COc1cccc2cnccc12)C(=O)NC(Cc1ccccc1)C(O)C(=O)N1CSC[C@H]1C(=O)NC(C)(C)C` (some centres not stated), for which the EC50 is 0.0513 µM and the IC50 turned out to be 10 µM. The matching figures for `Cc1cc(N)ccc1N=Nc1ccc(S(=O)(=O)CCOS(=O)(=O)O)cc1`: greater than 2 µM and 0.912 µM. The corresponding values for `Oc1cccc2cc(Cl)cnc12` are greater than 20 µM and 8.32 µM.

Turning to `CCOC(=O)CCn1ncc(Cl)c(Cl)c1=O`, the EC50 was greater than 933 µM and the IC50 came out at 4.07 µM. The matching figures for `Nc1c2ccccc2nc2ccccc12`: greater than 200 µM and 2.19 µM. The corresponding values for `O=C(O)CCC(NC(=O)c1ccc(Nc2nc3ccc(C(F)(F)F)cc3nc2C(=O)O)cc1)C(=O)O` (configuration not stated) are greater than 200 µM and greater than 200 µM. The corresponding values for `COC1/C=C\OC2(C)Oc3c(C)c(O)c4c(O)c(cc(OCC(=O)N(C)Cc5ccccc5)c4c3C2=O)NC(=O)/C(C)=C\C=C/C(C)C(O)C(C)C(O)C(C)C(OC(C)=O)C1C` (configuration not stated) are greater than 200 µM and 39.8 µM. For the compound `CCOC(=O)/C(F)=C/c1cccc(C)c1`, the EC50 is greater than 126 µM and the IC50 was greater than 126 µM. For the compound `O[C@H]1[C@@H](O)C2(C[C@@H]1Br)OC(COCc1ccccc1)[C@@H](COCc1ccccc1)O2` (some centres not stated), the result was inactive.

Take `CC#CC(OCC)(OCC)OCC`: the EC50 was greater than 1350 µM and the IC50 is greater than 1350 µM. As to `O=C1C2=C(CC3C(C2)C3(Br)Br)C(=O)C2=C1CC1C(C2)C1(Br)Br` (configuration not stated), the EC50 is greater than 9.33 µM and the IC50 is greater than 9.33 µM.

Turning to `Nc1nc(NC2CC2)c2ncn(C3C=CC(CO)CC3)c2n1` (configuration not stated), the EC50 was greater than 200 µM and the IC50 was greater than 200 µM. Turning to `CCSc1[nH]c(Nc2nc(-c3ccccc3)n(-c3ccccc3)n2)c(C(N)=O)c1C(N)=O`, the outcome was inactive. As to `CSC1=C(C#N)C(=S)N=C(N)C1C(=O)Nc1ccc(C)cc1` (configuration not stated), the EC50 was greater than 200 µM and the IC50 was greater than 100 µM. In the case of `O=C1CCCC1CN1CCCC1` (configuration not stated), the outcome was inactive.

On to `CCOC(=O)C(CC[C@@H]1N[C@H](C(N)=O)Cc2c1[nH]c1ccccc21)C(=O)OCC`, for which the EC50 was greater than 89.1 µM and the IC50 was greater than 89.1 µM. Regarding `Cn1c(O)c(C=Nc2ccc(Cl)cc2Cl)c(=O)n(C)c1=O`, the EC50 was greater than 200 µM and the IC50 was greater than 200 µM. In the case of `CC(C)=CC(Cc1ccccc1)S(=O)(=O)c1nc2ccccc2s1` (configuration not stated), the EC50 was greater than 200 µM and the IC50 was found to be 10 µM. The matching figures for `S=c1sc2ccccc2n1CCSSCCn1c(=S)sc2ccccc21`: greater than 200 µM and 191 µM. The corresponding values for `COP(=O)(CCC1OCCO1)OC` are greater than 200 µM and greater than 200 µM. The matching figures for `COC(=O)C1(C(=O)OC)CC2=C(S(=O)(=O)c3ccccc3)C[C@H](C#N)[C@H]2C1`: greater than 200 µM and 58.9 µM. With `Nc1nc2ccc(Sc3ccc4nc(N)[nH]c(=O)c4c3)cc2c(=O)[nH]1`, the EC50 is greater than 100 µM and the IC50 was greater than 100 µM. For the compound `O=c1[nH]c(F)nc2c1ncn2C1OC(CO)C(O)C1O` (configuration not stated), the EC50 was greater than 200 µM and the half-inhibitory concentration (IC50) is greater than 200 µM. For `COc1cccc2c1OC1Sc3ccccc3-c3nn(-c4ccccc4)c-2c31` (configuration not stated), the EC50 was greater than 7.08 µM and the IC50 is greater than 7.08 µM. With `CNc1ncnc2c1cnn2CCCCO`, the EC50 is greater than 200 µM and the IC50 was greater than 200 µM. As to `CN(C)CCNC(=O)c1cccc2c(NCCN(C)C)c3ccccc3nc12`, the EC50 is greater than 20 µM and the IC50 amounted to 2.09 µM. As for `N#CC1=C(S)N(C2OC(CO)C(O)C(O)C2O)C(c2ccccc2)=CC1c1cccs1` (configuration not stated), the EC50 was greater than 200 µM and the concentration for half-maximal inhibition (IC50) came to 27.5 µM. Turning to `Oc1cc(CN2CCOCCOCCOCCOCC2)c(O)cc1CN1CCOCCOCCOCCOCC1`, the EC50 was greater than 437 µM and the IC50 was 13.2 µM. The matching figures for `CCCCCCCCCCCCCCCCCC(=O)OCC1OC(OC)C(NC(=O)N(CCCl)N=O)C(O)C1O` (configuration not stated): greater than 8.71 µM and greater than 8.71 µM. The matching figures for `COC(=O)c1ccccc1/C=C1/Cc2ccccc2C1=O`: greater than 200 µM and greater than 200 µM. The matching figures for `N#C/C(=C\c1cc2ccccc2c2ccccc12)c1ccccc1`: greater than 12.3 µM and 6.46 µM.

Take `COc1ccc(C2=C(OC(=O)N(C)C)c3cccn3-c3cc(C(F)(F)F)ccc3S2)cc1`: the EC50 was greater than 200 µM and the IC50 is greater than 200 µM.

Regarding `Cn1c(=O)sc2cc(C(=S)N3CCOCC3)ccc21`, the EC50 was greater than 141 µM and the IC50 amounted to 64.6 µM. The corresponding values for `CN(C)CC1CCCCCCCCCC(CN(C)C)C1=O` (configuration not stated) are greater than 5.89 µM and greater than 5.89 µM.

As for `Cn1cc(C(=O)C2CCCCC2)ccc1=O`, the EC50 is greater than 1150 µM and the IC50 was 372 µM.

As to `COC(=O)C1=C(C)N2[C@H](C(=O)O)CO[C@@]2(C)[C@H](C(=O)OC)[C@H]1c1cccc([N+](=O)[O-])c1`, the EC50 was greater than 200 µM and the IC50 was greater than 200 µM.

For `CCN(CC)C1Oc2cc3c(cc2C(c2ccc(OC)cc2)C1C)OCO3` (configuration not stated), the EC50 was greater than 200 µM and the IC50 amounted to 24 µM. Turning to `CC(C)N([PH2+]N(C(C)C)C(C)C)C(C)C.[C-]#[O+].[C-]#[O+].[C-]#[O+].[C-]#[O+].[C-]#[O+].[Mo]`, the EC50 is greater than 77.6 µM and the IC50 is greater than 77.6 µM. In the case of `Nc1nc2c(ccc3ccccc32)[nH]1`, the result was inactive.

Consider `COC(=O)C(C)N(C)C(=O)[C@H](CC(N)=O)N(C)C(=O)[C@@H]1CCCN1C(=O)[C@H](C(C)C)N(C)C(=O)C(C(C)C)N(C)C(=O)[C@H](Cc1ccccc1)N(C)C(=O)C(NC(=O)OC(C)(C)C)C(C)C` (some centres not stated) (Boc-[ξV][NMeF][ξNMeV][NMeV]P[NMeN][ξNMeA]-OMe), for which the EC50 is greater than 100 µM and the IC50 was 17.8 µM.

Consider `COc1cc2ccnc3c2c(c1O)-c1ccccc1C3=O`, for which the outcome was inactive. As to `NC(Cc1ccc(O)c(O)c1)P(=O)(O)O` (configuration not stated), the EC50 was greater than 200 µM and the IC50 stood at 24.5 µM. The matching figures for `Cc1ccc(Nc2nc(-c3ccc(-c4ccc([N+](=O)[O-])cc4)o3)cs2)cc1`: greater than 10 µM and greater than 10 µM. The matching figures for `C=CCN1CCC(c2cc(C(=O)OCC)[nH]c2-c2cc(C)no2)C1=O` (configuration not stated): greater than 200 µM and greater than 200 µM. Regarding `CCOc1ccccc1Nc1nc(C)c(C(=O)CC(=O)C(=O)Nc2ccccc2)s1`, the EC50 is greater than 158 µM and the concentration for half-maximal inhibition (IC50) is 57.5 µM. For the compound `CN1C(C)(C)CC(=O)C(Br)C1(C)C` (configuration not stated), the EC50 is greater than 200 µM and the half-inhibitory concentration (IC50) stood at 117 µM. The matching figures for `Cc1cc(NS(=O)(=O)c2ccc(NC(=O)c3ccc(Cl)c4c(Nc5ccc(S(=O)(=O)Nc6cc(C)on6)cc5)c5ccccc5nc34)cc2)no1`: greater than 47.9 µM and greater than 47.9 µM.

For `C=C1OC(=O)[C@]2([C@@H](/C=C/C)C=CC(=O)[C@H]2O)[C@@H]1O`, the EC50 was greater than 200 µM and the IC50 was greater than 200 µM. In the case of `CN(C)CCC1(c2ccccc2)C=Cc2ccccc21` (configuration not stated), the EC50 was greater than 200 µM and the IC50 came to 107 µM. The corresponding values for `C1SCSCS1` are greater than 200 µM and greater than 200 µM. As for `Cc1ccc2nc(CN(CCO)CCO)cc(=O)n2c1`, the EC50 is greater than 200 µM and the IC50 is greater than 200 µM.

In the case of `CCOC(=O)/C(=C/c1ccc(Br)cc1)C(=O)c1ccccc1`, the EC50 was greater than 10.5 µM and the IC50 is greater than 10.5 µM. For `CCOc1ccccc1NC(=O)C1=C(C)NC(C)=C(C(=O)Nc2ccccc2OCC)C1c1cccc([N+](=O)[O-])c1`, the EC50 was greater than 12.9 µM and the IC50 is greater than 12.9 µM. Consider `CC(=O)CCC(=O)C(=[N+]=[N-])S(=O)(=O)c1ccccc1`, for which the EC50 is greater than 891 µM and the IC50 was determined as 151 µM. The matching figures for `NC1=NC(=O)C(CC(=O)Nc2ccc(Cl)cc2Cl)S1` (configuration not stated): greater than 794 µM and 372 µM. The matching figures for `Cc1cn(C2C=CC(CO)O2)c(=O)[nH]c1=O` (configuration not stated): 1.62 µM and 186 µM.
